Assay results from the NIST ThermoML archive (doi:10.1021/je800908h).

Assay: mn = molality of the nth substance listed, in mol/kg
Details: 101 kPa, Liquid, Linear variable-path acoustic interferometer

[2H]O[2H] [water-d2] + CCCC[N+](CCCC)(CCCC)CCCC.[Br-]
speed of sound [m/s]
Details | 283.15 K | 298.15 K | 318.15 K | 338.15 K
m2 = 0.05 | 1366.8 | 1414 | 1451.5 | –
m2 = 0.075 | 1375.9 | 1421.1 | 1456.5 | 1470.5
m2 = 0.1 | 1384.4 | – | 1461.4 | 1474.3
m2 = 0.2 | 1419.1 | 1453.9 | 1479.9 | 1486.6
m2 = 0.3 | 1450.2 | 1478.2 | – | 1498.1
m2 = 0.5 | 1506 | – | 1525.8 | 1518.2
m2 = 0.75 | 1562.5 | 1562.4 | 1554.8 | 1536.6
m2 = 1 | 1605.4 | 1594.2 | 1576.2 | 1550.2
m2 = 1.5 | 1658.6 | 1634.9 | 1601 | 1563.5
m2 = 2 | 1680.5 | 1652.1 | 1610 | 1566.4
m2 = 2.5 | 1686.3 | 1657 | 1611.3 | 1563.7
m2 = 3 | 1688.9 | 1661.4 | 1615.2 | 1564

[2H]O[2H] [water-d2] + C[N+](C)(C)C.[Br-]
speed of sound [m/s]
Details | 283.15 K | 298.15 K | 318.15 K | 338.15 K
m2 = 0.05 | 1352 | 1403 | 1443.9 | 1462.3
m2 = 0.075 | 1354.7 | 1405.2 | 1445.4 | 1463.6
m2 = 0.1 | 1357.5 | 1407.4 | 1447.1 | 1465.1
m2 = 0.2 | 1366.7 | 1414.7 | 1452.9 | 1469.8
m2 = 0.3 | 1376.5 | 1422.2 | 1458.6 | 1474.5
m2 = 0.5 | 1393.7 | 1436.4 | 1469.8 | 1484.1
m2 = 0.75 | 1414.4 | 1453.8 | 1483.7 | 1495.7
m2 = 1 | 1433.4 | 1470.2 | – | 1506.9
m2 = 1.5 | 1469.8 | 1500.5 | 1521.2 | 1527.4
m2 = 2 | 1502.4 | 1528 | 1543.6 | 1546.4
m2 = 2.5 | 1532.1 | 1552.9 | 1564.3 | 1564.2
m2 = 3 | 1560.4 | 1575.5 | 1583.5 | 1580.8

CCCC[N+](CCCC)(CCCC)CCCC.[Br-] [tetrabutylammonium bromide] + O
speed of sound [m/s]
Details | 283.15 K | 298.15 K | 318.15 K | 338.15 K
m1 = 0.05 | 1463 | 1508.4 | 1544.6 | 1558.6
m1 = 0.075 | 1470.4 | 1514.2 | 1548.4 | 1561.2
m1 = 0.1 | 1477.8 | 1520.2 | 1552.9 | 1564.2
m1 = 0.2 | 1506.2 | 1541.4 | 1567.4 | 1573.6
m1 = 0.3 | 1532.5 | 1561 | 1580.7 | 1582.4
m1 = 0.5 | 1579 | 1596.3 | 1604.7 | 1597
m1 = 0.75 | 1628.2 | 1632.7 | 1627.3 | 1610.3
m1 = 1 | 1667.1 | 1661.2 | 1644.1 | 1619.5
m1 = 1.5 | 1718.2 | 1697.4 | 1663.3 | 1626.6
m1 = 2 | 1743.4 | 1713.7 | 1669.5 | 1625
m1 = 2.5 | 1752.2 | 1718 | 1668.5 | 1619.5
m1 = 3 | 1753.9 | 1717.6 | 1668.3 | 1615.4

C[N+](C)(C)C.[Br-] [tetramethylammonium bromide] + O
speed of sound [m/s]
Details | 283.15 K | 298.15 K | 318.15 K | 338.15 K
m1 = 0.05 | 1451 | 1499.7 | 1538.7 | 1555.6
m1 = 0.075 | 1452.9 | 1500.3 | 1540 | 1556.2
m1 = 0.1 | 1455 | 1502.5 | 1541.1 | 1556.9
m1 = 0.2 | 1462.1 | 1508.1 | 1545.8 | 1560.9
m1 = 0.3 | 1469.5 | 1513.7 | 1550.4 | 1564.6
m1 = 0.5 | 1483.1 | 1524.7 | 1559.3 | 1571
m1 = 0.75 | 1499.8 | 1537.9 | 1569.3 | 1579.2
m1 = 1 | 1515.7 | 1550.8 | 1578.6 | 1587.3
m1 = 1.5 | 1544.7 | 1575.1 | 1596.6 | 1602
m1 = 2 | 1571.1 | 1597.2 | 1613.1 | 1615.7
m1 = 2.5 | 1595.4 | 1617 | 1628.8 | 1628.9
m1 = 3 | 1617.4 | 1633.7 | 1644.7 | 1641.3
